Eight compounds from PubChem BioAssay AID2060625 (Molecular Pharmacology Branch, DTP, NCI, 2025) can be followed below.

In the test the test system is 186277-243-T-J2-PDC spheroids with HUVEC/MSC, viability. Description: Anticancer human tumor 186277-243-T-J2-PDC patient-derived colon adenocarcinoma cell line growth inhibition [CLK]. The following applies: for viability, T/C: stronger effect = lower value. Summed up:
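Patient-derived tumor cells grown as complex spheroids with HUVEC endothelial cells and mesenchymal stem cells, treated with drug combinations. Concentrations descend in half-log steps from near clinical Cmax, or from 10 microM if Cmax unknown.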

[1] abbreviates: curve of first compound, second compound 0.0316 µM.
Setting [2] is: curve of first compound, second compound 0.1 µM.
The mark [3] stands for this setting: curve of first compound, second compound 0.316 µM.
Setting [4] is: curve of first compound, second compound 1 µM.
Where [5] appears, read: curve of first compound, second compound 3.16 µM.
Setting [6] is: curve of first compound, second compound 10 µM.

“And” between values parts separate entries of the source, which are not always exact repeats. Equal entries are not always repeated.
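Further: compound exposure lasted seven days before readout.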
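Wherever viability, T/C is given: 100% = DMSO vehicle control wells.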

As to `CC(C)CC(NC(=O)C(Cc1ccccc1)NC(=O)c1cnccn1)B(O)O` (stereo not given) + CN1CCN(c2cc(C(=O)Nc3cc4cc(-c5cnn(C)c5)ccc4cn3)ccn2)CC1, the 50% inhibitory concentration (IC50) under setting [1] turned out to be 4.52 nM; the IC50 under setting [2] was 2.27 nM; the IC50 under setting [3] is under 0.949 nM; the IC50 under setting [4] was under 0.949 nM; the IC50 under setting [5] was under 0.949 nM; the half-maximal inhibitory concentration (IC50) under setting [6] is under 0.949 nM. For the same compound, the viability, T/C by setting is: (second compound 0.0316 µM, first compound 0.000949 µM) 93%; (second compound 0.0316 µM, first compound 0.003 µM) 77.2%; (second compound 0.0316 µM, first compound 0.00949 µM) 0.25%; (second compound 0.0316 µM, first compound 0.03 µM) 0.9%; (second compound 0.0316 µM, first compound 0.0949 µM) 0.78%; (second compound 0.0316 µM, first compound 0.3 µM) 1.15%. Moreover, the viability, T/C is 88.1% (second compound 0.1 µM, first compound 0.000949 µM); 37.7% (second compound 0.1 µM, first compound 0.003 µM); 1.84% (second compound 0.1 µM, first compound 0.00949 µM); 0.31% (second compound 0.1 µM, first compound 0.03 µM); 1.92% (second compound 0.1 µM, first compound 0.0949 µM); 0.17% (second compound 0.1 µM, first compound 0.3 µM). Further, the viability, T/C was 26.1% (second compound 0.316 µM, first compound 0.000949 µM); 1.14% (second compound 0.316 µM, first compound 0.003 µM); 1.35% (second compound 0.316 µM, first compound 0.00949 µM); 1.4% (second compound 0.316 µM, first compound 0.03 µM); 1.62% (second compound 0.316 µM, first compound 0.0949 µM); 0.34% (second compound 0.316 µM, first compound 0.3 µM). The viability, T/C runs as follows: (second compound 1 µM, first compound 0.000949 µM) 0.5%; (second compound 1 µM, first compound 0.003 µM) 0.4%; (second compound 1 µM, first compound 0.00949 µM) 1.57%; (second compound 1 µM, first compound 0.03 µM) 0.8%; (second compound 1 µM, first compound 0.0949 µM) 1.78%; (second compound 1 µM, first compound 0.3 µM) 0.17%. The viability, T/C is, setting by setting: (second compound 3.16 µM, first compound 0.000949 µM) 2.83%; (second compound 3.16 µM, first compound 0.003 µM) 0.72%; (second compound 3.16 µM, first compound 0.00949 µM) 0.33%; (second compound 3.16 µM, first compound 0.03 µM) 1.62%; (second compound 3.16 µM, first compound 0.0949 µM) 1.24%; (second compound 3.16 µM, first compound 0.3 µM) 0.17%. The viability, T/C (second compound 10 µM, first compound 0.000949 µM) was 1.17%; the viability, T/C (second compound 10 µM, first compound 0.003 µM) was 0.46%; the viability, T/C (second compound 10 µM, first compound 0.00949 µM) was 0.27%; the viability, T/C (second compound 10 µM, first compound 0.03 µM) is 1.87%; the viability, T/C (second compound 10 µM, first compound 0.0949 µM) was 1.18%; the viability, T/C (second compound 10 µM, first compound 0.3 µM) was 0.16%.

Regarding `CC1COCCN1c1cc(C2(S(C)(=N)=O)CC2)nc(-c2ccnc3[nH]ccc23)n1` (stereo not given), the viability, T/C was 103% and 82.6% (compound 0.0316 µM); 85.5% and 88% (compound 0.1 µM); 96.9% and 95% (compound 0.316 µM); 122% and 103% (compound 1 µM); 41.2% and 34% (compound 3.16 µM); 15% and 13.5% (compound 10 µM). Besides, the IC50 (curve of compound) is 2680 nM and 2310 nM.

With `COc1cccc2c1C(=O)c1c(O)c3c(c(O)c1C2=O)CC(O)(C(=O)CO)CC3OC1CC(N)C(O)C(C)O1` (stereo not given), the viability, T/C reads like this: (compound 0.0316 µM) 127%; (compound 0.1 µM) 76.1%; (compound 0.316 µM) 20.6%; (compound 1 µM) 0.4%; (compound 3.16 µM) 1.81%; (compound 10 µM) 2.31%. Moreover, for the setting “curve of compound”, the half-maximal inhibitory concentration (IC50) was 171 nM.

`CCCS(=O)(=O)Nc1ccc(F)c(C(=O)c2c[nH]c3ncc(-c4ccc(Cl)cc4)cc23)c1F` + CN1CCN(c2cc(C(=O)Nc3cc4cc(-c5cnn(C)c5)ccc4cn3)ccn2)CC1: the IC50 is, setting by setting: under setting [1], over 10000 nM; under setting [2], over 10000 nM; under setting [3], under 31.6 nM; under setting [4], under 31.6 nM; under setting [5], under 31.6 nM; under setting [6], under 31.6 nM. The viability, T/C (second compound 0.0316 µM, first compound 0.0316 µM) is 109%; the viability, T/C (second compound 0.0316 µM, first compound 0.1 µM) is 104%; the viability, T/C (second compound 0.0316 µM, first compound 0.316 µM) is 103%; the viability, T/C (second compound 0.0316 µM, first compound 1 µM) is 97.4%; the viability, T/C (second compound 0.0316 µM, first compound 3.16 µM) was 113%; the viability, T/C (second compound 0.0316 µM, first compound 10 µM) is 89.6%. Besides, the viability, T/C reads like this: (second compound 0.1 µM, first compound 0.0316 µM) 87.4%; (second compound 0.1 µM, first compound 0.1 µM) 82.3%; (second compound 0.1 µM, first compound 0.316 µM) 86.7%; (second compound 0.1 µM, first compound 1 µM) 99.4%; (second compound 0.1 µM, first compound 3.16 µM) 95.9%; (second compound 0.1 µM, first compound 10 µM) 69.2%. Further, the viability, T/C (second compound 0.316 µM, first compound 0.0316 µM) was 30.5%; the viability, T/C (second compound 0.316 µM, first compound 0.1 µM) was 30.9%; the viability, T/C (second compound 0.316 µM, first compound 0.316 µM) is 31.8%; the viability, T/C (second compound 0.316 µM, first compound 1 µM) was 32.1%; the viability, T/C (second compound 0.316 µM, first compound 3.16 µM) is 22.5%; the viability, T/C (second compound 0.316 µM, first compound 10 µM) was 20.1%. Further, the viability, T/C is, setting by setting: (second compound 1 µM, first compound 0.0316 µM) 0.48%; (second compound 1 µM, first compound 0.1 µM) 0.83%; (second compound 1 µM, first compound 0.316 µM) 1.17%; (second compound 1 µM, first compound 1 µM) 1.25%; (second compound 1 µM, first compound 3.16 µM) 0.57%; (second compound 1 µM, first compound 10 µM) 0.46%. Further, the viability, T/C was 1.11% (second compound 3.16 µM, first compound 0.0316 µM); 1.22% (second compound 3.16 µM, first compound 0.1 µM); 2.84% (second compound 3.16 µM, first compound 0.316 µM); 1.64% (second compound 3.16 µM, first compound 1 µM); 2.61% (second compound 3.16 µM, first compound 3.16 µM); 1.65% (second compound 3.16 µM, first compound 10 µM). Further, the viability, T/C is 0.65% (second compound 10 µM, first compound 0.0316 µM); 0.72% (second compound 10 µM, first compound 0.1 µM); 1.61% (second compound 10 µM, first compound 0.316 µM); 0.95% (second compound 10 µM, first compound 1 µM); 1.27% (second compound 10 µM, first compound 3.16 µM); 0.74% (second compound 10 µM, first compound 10 µM).

Take `CNC(=O)c1ccc(Nc2nc(OC3CCCC3)c3c(-c4ccc5nc(C)oc5c4)c[nH]c3n2)c(OC)c1`: the viability, T/C (compound 0.1 µM) was 67.9% [middle of 12 runs]; the viability, T/C (compound 0.316 µM) is 46.2% [middle of 12 runs]; the viability, T/C (compound 1 µM) was 33% [middle of 12 runs]; the viability, T/C (compound 3.16 µM) was 32.1% [middle of 12 runs]; the viability, T/C (compound 10 µM) is 33.9% [middle of 11 runs]. The IC50 (compound alone, run of 08/15/2023) is 241 nM [middle of 12 runs].

Take `C#Cc1c(F)ccc2cc(O)cc(-c3ncc4c(N5CC6CCC(C5)N6)nc(OCC56CCCN5CC(F)C6)nc4c3F)c12` (stereo not given): the viability, T/C is 95.5% and 101% (compound 0.0316 µM); 73.5% and 89.7% (compound 0.1 µM); 69.2% and 120% (compound 0.316 µM); 32% and 60% (compound 1 µM); 20.9% and 34.8% (compound 3.16 µM); 14.7% and 21.7% (compound 10 µM). Besides, the IC50 (curve of compound) is 538 nM and 1440 nM.

With `Nc1ccn(C2OC(CO)C(O)C2(F)F)c(=O)n1` (stereo not given), the viability, T/C reads like this: (compound 0.0316 µM) 15.6% and 11.9%; (compound 0.1 µM) 15.7% and 12.4%; (compound 0.316 µM) 15.3% and 12.4%; (compound 1 µM) 17.3% and 13.5%; (compound 3.16 µM) 19% and 14%; (compound 10 µM) 20.5% and 13.1%. For the same compound, the IC50 (curve of compound) was under 31.6 nM.

Consider `CC(Nc1ccc2c(c1)OCCn1cc(N3C(=O)OCC3C(F)F)nc1-2)C(N)=O` (stereo not given), for which the viability, T/C is, setting by setting: (compound 0.0316 µM) 96.2%; (compound 0.1 µM) 103% and 104%; (compound 0.316 µM) 80% and 80.6%; (compound 1 µM) 65.2% and 58.1%; (compound 3.16 µM) 58.7% and 53.7%; (compound 10 µM) 49.9% and 37.6%. In addition, the IC50 (curve of compound) is > 10000 nM and 2380 nM.

The term IC50 denotes the point on the concentration scale where inhibition reaches its midpoint. As a reminder, the viability, T/C is the ratio of treated to control.
